Source: PubChem BioAssay (NCI)
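Protocol summary: plate cells (96-well), add compound at 5 concentrations, incubate 48 h, interpolate endpoints linearly. Here, GI50 denotes the concentration required for 50% inhibition of growth. TGI: concentration producing complete growth inhibition.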 The source made the active and inactive calls. Rule as the data show it: active = GI50 below about 0.43 µM; inactive = the rest.

What was measured:
Assay in all cases: NCI tumour cell line growth inhibition, 48 h
A498 renal = tested on: A498 renal
HL-60(TB) leukemia = tested on: HL-60(TB) leukemia
KM20L2 colon = tested on: KM20L2 colon
LOX IMVI melanoma = tested on: LOX IMVI melanoma
M14 melanoma = tested on: M14 melanoma
NCI-H460 lung = tested on: NCI-H460 lung
SNB-19 CNS = tested on: SNB-19 CNS
SK-MEL-5 melanoma = tested on: SK-MEL-5 melanoma
DU-145 prostate = tested on: DU-145 prostate

Row | SMILES | TGI (A498 renal) | TGI (HL-60(TB) leukemia) | TGI (KM20L2 colon) | TGI (LOX IMVI melanoma) | TGI (M14 melanoma) | TGI (NCI-H460 lung) | TGI (SNB-19 CNS) | TGI (SK-MEL-5 melanoma) | GI50 (A498 renal) | GI50 (KM20L2 colon) | GI50 (LOX IMVI melanoma) | GI50 (M14 melanoma) | GI50 (NCI-H460 lung) | GI50 (SK-MEL-5 melanoma) | GI50 (HL-60(TB) leukemia) | outcome (KM20L2 colon) | GI50 (SNB-19 CNS) | GI50 (DU-145 prostate) | TGI (DU-145 prostate)
1 | NC(=O)C(=O)Cc1nc2ccccc2s1 | > 100 µM | > 100 µM | > 100 µM | > 100 µM | > 100 µM | > 100 µM | > 100 µM |  |  |  |  |  |  |  |  |  |  |  | 
2 | Nc1c(-c2nc3ccccc3s2)[n+]([O-])c2ccccc2[n+]1[O-] | > 100 µM | 93.5 µM | > 100 µM |  | 74.2 µM | > 100 µM | > 100 µM | 40.4 µM |  |  |  |  |  |  |  |  |  |  | 
3 | CC1(C)CC(O)CC(C)(C)N1.CC1(C)CC(O)CC(C)(C)N1.CC1(C)CC(O)CC(C)(C)N1.CC1(C)CC(O)CC(C)(C)N1.Cl.[Ti] | > 100 µM |  | > 100 µM | > 100 µM | > 100 µM | > 100 µM |  | > 100 µM | > 100000 nM | > 100 µM | > 100000 nM | > 100 µM | > 100 µM | > 100 µM |  |  |  |  | 
4 | O=C(O)C1=C(C(=O)O)Oc2ccccc2O1 | > 100 µM | > 100 µM | > 100 µM | > 100 µM | > 100 µM | > 100 µM | > 100 µM |  |  |  |  |  |  |  |  |  |  |  | 
5 | CCOC(=O)COc1cccc2occc(=O)c12 | > 100 µM | > 100 µM | > 100 µM | > 100 µM | > 100 µM | > 100 µM | > 100 µM | > 100 µM |  |  |  |  |  |  |  |  |  |  | 
6 | CC(C)(C)c1cc(C(OCCl)(C(F)(F)F)C(F)(F)F)c2c(c1)C(C(F)(F)F)(C(F)(F)F)OC21c2ccccc2C(=O)c2ccccc21 |  |  | > 100 µM |  | > 100 µM | > 100 µM | > 100 µM | > 100 µM |  |  |  |  |  |  |  |  |  |  | 
7 | Nc1ncnc2sc(Nc3ccccc3)nc12 |  | 64.7 µM | > 100 µM | > 100 µM | > 100 µM | > 100 µM | > 100 µM |  |  |  |  |  |  |  |  |  |  |  | 
8 | O=C1c2ccoc2C(=O)c2oc(=O)ccc21 | > 85.9 µM | 6.8 µM | > 65.4 µM | 10.7 µM | 21.8 µM | 37.1 µM | 31 µM | 3.15 µM |  |  |  |  |  |  |  |  |  |  | 
9 | NNC(=O)N/N=C1\CNC(=O)C(=O)C1c1nc2ccccc2s1 (stereo not drawn) | > 100 µM | > 100 µM | > 100 µM | > 100 µM | > 100 µM | > 100 µM | > 100 µM | > 100 µM |  |  |  |  |  |  |  |  |  |  | 
10 | O=S(=O)(Cc1ccccc1)SCc1ccccc1 | 73.6 µM | 21.5 µM | 40.1 µM | 30.9 µM | 27.6 µM | > 83.8 µM | > 100 µM | 48.5 µM |  |  |  |  |  |  |  |  |  |  | 
11 | O=C(CCC(=O)C1Cc2ccccc2C1=O)Nc1cccc(C(F)(F)F)c1 (stereo not drawn) |  | > 100 µM | > 100 µM | > 100 µM | > 100 µM | > 100 µM | > 100 µM | > 100 µM |  |  |  |  |  |  |  |  |  |  | 
12 | O=c1c2cccc3cccc(c4n1CCCN=4)c32 | > 100 µM | > 100 µM | > 100 µM | 53.5 µM | > 100 µM | > 100 µM |  | > 100 µM |  |  |  |  |  |  |  |  |  |  | 
13 | Nc1nc(-c2ccccc2)cc(-c2cc(Cl)ccc2O)n1 | > 100 µM | > 100 µM | > 100 µM | > 100 µM | > 100 µM | > 100 µM | > 100 µM |  |  |  |  |  |  |  |  |  |  |  | 
14 | COc1ccc2c3c(c(C(=O)O)oc13)C(CCC(=O)O)CC2 (stereo not drawn) | > 100 µM |  | > 100 µM | > 100 µM | > 100 µM | > 100 µM | > 100 µM | > 100 µM |  |  |  |  |  |  |  |  |  |  | 
15 | C1=C(c2ccccc2)C(OC2Oc3ccccc3C=C2c2ccccc2)Oc2ccccc21 (stereo not drawn) | > 100 µM | > 100 µM | > 100 µM | > 100 µM | > 100 µM | > 100 µM | > 100 µM | > 100 µM |  |  |  |  |  |  |  |  |  |  | 
16 | COc1ccc2nc(-c3ccc(O)cc3)ccc2c1 |  | > 100 µM | > 100 µM | > 100 µM | > 100 µM | > 100 µM | > 100 µM | > 100 µM |  |  |  |  |  |  |  |  |  |  | 
17 | C/C(CC(=O)Nc1cccc(Cl)c1C)=N\N=C(N)N | > 100 µM | > 100 µM | > 100 µM | > 100 µM | > 100 µM | > 100 µM | > 100 µM | > 100 µM |  |  |  |  |  |  |  |  |  |  | 
18 | C1CCN2CC3CONC3C2C1 (stereo not drawn) | > 100 µM | > 100 µM | > 100 µM | > 100 µM | > 100 µM | > 100 µM | > 100 µM | > 100 µM |  |  |  |  |  |  |  |  |  |  | 
19 | CC(=O)c1c(O)c2c([nH]c1=O)CCCC2 |  | > 100 µM | > 100 µM | > 100 µM | > 100 µM | 30.5 µM | 33.9 µM |  |  |  |  |  |  |  |  |  |  |  | 
20 | O=C(Nc1ccc(Cl)c(Cl)c1)C1C(=O)N(c2ccc(Cl)c(Cl)c2)C(=O)/C1=N\O (stereo not drawn) | > 100 µM |  | > 100 µM | 87.7 µM | 53.8 µM |  | > 100 µM | > 100 µM |  |  |  |  |  |  |  |  |  |  | 
21 | c1ccc2c(c1)[O][Sn][O]2 | > 150 µg/mL | 6.37 µg/mL |  | 112 µg/mL | > 150 µg/mL | > 150 µg/mL | > 150 µg/mL | > 150 µg/mL | 41.2 µg/mL |  | 27.8 µg/mL | 57.3 µg/mL | 46 µg/mL | 20.7 µg/mL | 1.55 µg/mL | inactive | 61.5 µg/mL |  | 
22 | Oc1ccc(-c2[nH]c3ccccc3c2-c2nc3ccccc3o2)cc1 | 14.9 µM | 49.5 µM |  | 5.72 µM | 13.8 µM | 11.5 µM | 22.1 µM | 7.8 µM | 2180 nM |  | 1900 nM | 3.26 µM | 3.24 µM | 2.16 µM | 12.1 µM |  | 6.77 µM | 5.69 µM | 18.3 µM
23 | Cc1ccc(O)cc1Nc1ccnc2cc(-c3ccccn3)ccc12 | 5.04 µM | 9.53 µM |  | 5.71 µM | 7.51 µM | 7.4 µM | 18.3 µM | 7.14 µM | 1830 nM |  | 2260 nM | 3.24 µM | 3.65 µM | 3.6 µM | 4.69 µM |  | 4.54 µM | 1.38 µM | 8.28 µM
24 | CC1CCC2c3c([nH]c4ccccc34)C3C(=O)N(c4ccccc4)C(=O)C3C2C1 (stereo not drawn) |  | > 250 µM | > 250 µM | > 250 µM | > 250 µM | > 250 µM | > 250 µM |  |  |  | 153000 nM | 160 µM |  |  |  |  | 69.2 µM |  | 
25 | NCC(Cc1ccccc1)P(=O)(O)O (stereo not drawn) | > 100 µM | > 100 µM |  | > 100 µM | > 100 µM | > 100 µM | > 100 µM | > 100 µM |  |  |  |  |  |  |  |  |  |  | > 100 µM
26 | CCOc1ccc(/C=C2/C(=O)N=C(N)N=C2N)cc1OCC |  | > 100 µM | > 100 µM | > 100 µM | > 100 µM | > 100 µM | > 100 µM | > 100 µM |  |  |  |  |  |  |  |  |  |  | 
